Experiments:
[1] = target: Cerezyme (Recombinant GCase) (Homo sapiens (Human), UniProt P04062, R534H); assay: Inactivation assay: residual Cerezyme activity with 2,4-DNP-β-Glc substrate; assay type: biochemical; details: 37° C., pH 5.5
Method: Inactivation solutions contained a final concentration of 16.55 nM of Cerezyme® (Recombinant GCase) in 200 μL of Reaction Buffer (50 mM acetate, 0.2% v/v Triton X-100, 0.3% w/v sodium taurocholate, pH 5.5). […] These enzyme Reaction Buffers were brought to 37° C. and spiked with a corresponding inhibitor to make the final inhibitor concentration either 20 nM, 40 nM, 60 nM, 80 nM, 120 nM, 160 nM and 200 nM. Once the inhibitor was added this was considered time=0 minutes. Meanwhile a 96 well plate inside a Biotek Synergy 4 hybrid multi-mode reader at 37° C. was being incubated. In the wells of the plate were waiting a high concentration (3.2 mM) of 2,4-DNP-β-Glc substrate in 180 μL of Reaction Buffer. […] Once all the aliquots were added the solution in the wells was measured for absorbance at 400 nm for 8 minutes. […] Inactivation rates for varying inhibitor concentrations were calculated using GraphPad Prism software and Equation 2 (below). […]
Small aliquots of these reaction mixtures were withdrawn and diluted 20-fold in 96 well plates containing a final concentration of 4 mM of the substrate 2,4-DNP-β-D-Glc. […] Residual enzymatic activity at different time points and concentrations was monitored by quantifying the release of 2,4-DNP after 2,4-DNP-3-D-Glc cleavage by Cerezyme®. […]

GCase over GBA2 and GBA3 = GCase over GBA2 and GBA3 (Homo sapiens (Human), UniProt P04062); details: in words; cited from earlier work
GCase = GCase (Homo sapiens (Human), UniProt P04062); details: cited from earlier work; for ki/Ki previously reported: previously reported (ref 44)
GCase, sequence (P04062 40-536): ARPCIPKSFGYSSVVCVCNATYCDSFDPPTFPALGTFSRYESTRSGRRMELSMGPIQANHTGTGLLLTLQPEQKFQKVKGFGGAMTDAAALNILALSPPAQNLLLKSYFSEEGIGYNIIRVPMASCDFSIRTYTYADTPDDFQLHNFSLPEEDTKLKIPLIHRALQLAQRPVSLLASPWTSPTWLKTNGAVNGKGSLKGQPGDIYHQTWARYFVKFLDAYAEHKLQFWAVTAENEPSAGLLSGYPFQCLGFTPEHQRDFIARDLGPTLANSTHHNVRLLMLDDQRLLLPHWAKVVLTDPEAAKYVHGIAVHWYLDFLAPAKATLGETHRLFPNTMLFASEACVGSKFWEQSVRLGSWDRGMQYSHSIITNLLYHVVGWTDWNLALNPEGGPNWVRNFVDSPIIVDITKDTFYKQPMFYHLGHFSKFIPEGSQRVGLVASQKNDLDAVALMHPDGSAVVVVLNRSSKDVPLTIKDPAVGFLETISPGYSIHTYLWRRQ

[2] = target: GCase in the presence of Saposin C (Homo sapiens (Human), UniProt P04062); assay: GCase inactivation rate in the presence of Saposin C; assay type: biochemical; details: in words
GCase in the presence of Saposin C, sequence (P04062 40-536): as above

[3] = in words; cited from earlier work
[4] = target: Cerezyme, a recombinant form of GCase (Homo sapiens (Human), UniProt P04062, R534H); details: cited from earlier work
Cerezyme, a recombinant form of GCase, sequence (P04062 40-536 R534H limits assumed): as the sequence (P04062 40-536) above, with R495H counted along it

Cerezyme (Recombinant GCase), sequence (P04062 40-536 R534H limits assumed): as the sequence (P04062 40-536) above, with R495H counted along it
GCase over GBA2 and GBA3, sequence (P04062 40-536): as the sequence (P04062 40-536) above

## N-octyl conduritol aziridine [Compound 1.7]
[1]
  ki/Ki: 78300 ± 4170 M⁻¹ s⁻¹
GCase over GBA2 and GBA3
  selectivity for GCase over GBA2 and GBA3: selective inhibition of GCase over GBA2 and GBA3
GCase; inhibition of GCase, reported data
  ki/Ki: 25.0 μM^−1/min^−1
GCase
  ki/Ki previously reported: 61170 ± 1170 M⁻¹ s⁻¹
GCase; rate constant of inactivation of GCase, reported data
  ki: 0.120 min⁻¹
[2]
  inactivation rates towards GCase with Saposin C: enhanced
[3]
  cell permeability: cell permeable

## O[C@H]1[C@H](O)[C@@H](O)[C@H]2[C@@H]([C@@H]1O)N2CCCCC#Cc1ccc(F)cc1 (mixture of isomers) [Compound 34, (±)-(1R,2S,3R,4R,5S,6S)-7-(6-(4-fluorophenyl)hex-5-yn-1-yl)-7-azabicyclo[4.1.0]heptane-2,3,4,5-tetraol]
[1]
  ki/Ki: 85000 ± 1670 M⁻¹ s⁻¹

## hexyl conduritol aziridine
GCase
  ki/Ki previously reported: 10700 ± 500 M⁻¹ s⁻¹

## butyl conduritol aziridine
GCase
  ki/Ki previously reported: 63.3 ± 1.7 M⁻¹ s⁻¹

## O=[N+]([O-])c1ccc(OC2O[C@H](CO)[C@@H](O)[C@H](O)[C@H]2F)c([N+](=O)[O-])c1 (stereo partly drawn) [Compound 1.1, β-2,4-dinitrophenyl-fluorodeoxyglucose]
[4]
  t½ of glucosyl-enzyme: > 21.67 h

Reference: US11826435B2, “Conduritol aziridine derivatives and uses thereof” (University of Saskatchewan, priority 2017, dated 2023)
